Legend:
[1] = target: type 4 phosphodiesterases (PDE4); experiment: Inhibition of the phosphodiesterase (PDE4), enzymatic preparation from line U937; type: biochemical; settings: PDE4 from cytosolic preparation of human cell line U937
Experimental: The capacity of the formula (I) compounds of the invention to inhibit the cyclic nucleotide phosphodiesterases is evaluated by their Cl50 measurement (necessary concentration to inhibit 50% of enzymatic activity).
The type 4 phosphodiesterases are obtained from a cytosolic preparation extracted from the human origin cellular line U937 according to a method adapted from T. J. Torphy and al., 1992, J.Pharm.Exp. Ther. 263: 1195-1205
The other classes of phosphodiesterases are obtained after partial purification FPLC on Mono Q column. (anion exchange column) according to a method adapted from Lavan B. E., Lakey T., Houslay M. D. Biochemical Pharmacology, 1989, 38(22), 4123-4136., and from Silver P. J and al., 1988, Eur.J. Pharmacol. 150: 85-94, either, from human origin cellular lines for PDE 1 (monocytar line TPH1) and PDE5 (line MCF7 issued from an adenocarcinoma), or from dog aorta for PDE 3, or for the human PDE3A, from gene cloning in insect cells SF21 in baculovirus, according to a method adapted from Luckow, V. A. and al., 1991 in Recombinant DNA Technology&Applications.,eds. Prokop, Bajpai,R. K.&Ho,C. S., pp97-152. The enzymatic activity measurement of the different PDE classes, and in particular the PDE 4, is performed according to a method adapted from W. J. Thompson and al. 1979, Advances in Cyclic Nucleotide Research, Vol. 10: 69-92, ed. G. Brooker and al. Raven Press, NY.
For the Cl50 determination, the enzymatic activity is measured in the presence of inhibitor within concentration margins of 0.1 to 100 μM.
The following table illustrates the PDE4 inhibitory activity from enzymatic preparation obtained from the line U937.

IC50 [1]	melting point	Structure (SMILES)
80 nM	166 °C	O=c1c2cc(Cl)ccc2n2c(N3CCCCCC3)nnc2n1Cc1ccc(Cl)cc1 [Compound 11, 1-(azepan-1-yl)-7-chloro-4-(4-chlorobenzyl)-4H-[1,2,4]triazolo[4,3-a]quinazolin-5-one]
60 nM	150 °C	O=c1c2cc(Cl)ccc2n2c(N3CCCCCC3)nnc2n1Cc1ccc(F)cc1 [Compound 13, 1-(azepan-1-yl)-7-chloro-4-(4-fluorobenzyl)-4H-[1,2,4]triazolo[4,3-a]quinazolin-5-one]
40 nM	172 °C	COc1ccc(Cn2c(=O)c3cc(Cl)ccc3n3c(N4CCCCCC4)nnc23)cc1OC [Compound 20, 1-(azepan-1-yl)-7-chloro-4-(3,4-dimethoxybenzyl)-4H-[1,2,4]triazolo[4,3-a]quinazolin-5-one]
410 nM	155 °C	O=c1c2cc(Cl)ccc2n2c(N3CCCCCC3)nnc2n1Cc1cccnc1 [Compound 22, 1-(azepan-1-yl)-7-chloro-4-(3-pyridylmethyl)-4H-[1,2,4]triazolo[4,3-a]quinazolin-5-one]
53 nM	179 °C	O=c1c2cc(Br)ccc2n2c(N3CCCCCC3)nnc2n1Cc1ccc(Cl)cc1 [Compound 32, 1-(azepan-1-yl)-7-bromo-4-(4-chloro-benzyl)-4H-[1,2,4]triazolo[4,3-a]quinazolin-5-one]
56 nM	190 °C	N#Cc1ccc(Cn2c(=O)c3cc(Br)ccc3n3c(N4CCCCCC4)nnc23)cc1 [Compound 34, 4-(1-Azepan-1-yl-7-bromo-5-oxo-5H-[1,2,4]triazolo[4,3-a]quinazolin-4-ylmethyl)-benzonitrile]
15 nM	155 °C	O=c1c2cc(Br)ccc2n2c(N3CCCCCC3)nnc2n1CC=Cc1ccccc1 [Compound 37, 1-(azepan-1-yl)-7-bromo-4-(3-phenylallyl)-4H-[1,2,4]triazolo[4,3-a]quinazolin-5-one]
14 nM	185 °C	O=c1c2cc(Br)ccc2n2c(N3CCCCCC3)nnc2n1C/C=C/c1cccnc1 [Compound 40, 1-Azepan-1-yl-7-bromo-4-((E)-3-pyridin-3-yl-allyl)-4H-[1,2,4]triazolo[4,3-a]quinazolin-5-one]
18 nM	216 °C	O=c1c2cc(Br)ccc2n2c(N3CCCCCC3)nnc2n1CC=Cc1ccncc1 [Compound 41, 1-Azepan-1-yl-7-bromo-4-(3-pyridin-4-yl-allyl)-4H-[1,2,4]triazolo[4,3-a]quinazolin-5-one]
24 nM	215 °C	Cc1ccc(Cn2c(=O)c3cc(Br)ccc3n3c(N4CCCC4)nnc23)cc1 [Compound 42, 7-Bromo-4-(4-methyl-benzyl)-1-pyrrolidin-1-yl-4H-[1,2,4]triazolo[4,3-a]quinazolin-5-one]
30 nM	105 °C	O=c1c2cc(Br)ccc2n2c(N3CCCC3)nnc2n1Cc1ccc(Cl)cc1 [Compound 43, 7-Bromo-4-(4-chloro-benzyl)-1-pyrrolidin-1-yl-4H-[1,2,4]triazolo[4,3-a]quinazolin-5-one]
90 nM	166 °C	O=c1c2cc(Br)ccc2n2c(N3CCCC3)nnc2n1Cc1ccc(F)cc1 [Compound 44, 7-Bromo-4-(4-fluoro-benzyl)-1-pyrrolidin-1-yl-4H-[1,2,4]triazolo[4,3-a]quinazolin-5-one]
50 nM	205 °C	COC(=O)c1ccc(Cn2c(=O)c3cc(Br)ccc3n3c(N4CCCC4)nnc23)cc1 [Compound 47, 4-(7-Bromo-5-oxo-1-pyrrolidin-1-yl-5H-[1,2,4]triazolo[4,3-a]quinazolin-4-ylmethyl)-benzoic acid methyl ester]
25 nM	200 °C	O=c1c2cc(Br)ccc2n2c(N3CCCC3)nnc2n1Cc1ccc([N+](=O)[O-])cc1 [Compound 48, 7-Bromo-4-(4-nitro-benzyl)-1-pyrrolidin-1-yl-4H-[1,2,4]triazolo[4,3-a]quinazolin-5-one]
80 nM	169 °C	COc1ccc(Cn2c(=O)c3cc(Br)ccc3n3c(N4CCCC4)nnc23)cc1 [Compound 49, 7-Bromo-4-(4-methoxy-benzyl)-1-pyrrolidin-1-yl-4H-[1,2,4]triazolo[4,3-a]quinazolin-5-one]
35 nM	195 °C	CC(=O)Oc1ccc(Cn2c(=O)c3cc(Br)ccc3n3c(N4CCCC4)nnc23)cc1 [Compound 50, Acetic acid 4-(7-bromo-5-oxo-1-pyrrolidin-1-yl-5H-[1,2,4]triazolo[4,3-a]quinazolin-4-ylmethyl)-phenyl ester]

IC50 [1]	melting point	Structure (SMILES)
27 nM	288 °C	O=c1c2cc(Br)ccc2n2c(N3CCCC3)nnc2n1Cc1ccc(O)cc1 [Compound 51, 7-Bromo-4-(4-hydroxy-benzyl)-1-pyrrolidin-1-yl-4H-[1,2,4]triazolo[4,3-a]quinazolin-5-one]
30 nM	151 °C	COc1ccc(Cn2c(=O)c3cc(Br)ccc3n3c(N4CCCC4)nnc23)cc1OC [Compound 52, 7-Bromo-4-(3,4-dimethoxy-benzyl)-1-pyrrolidin-1-yl-4H-[1,2,4]triazolo[4,3-a]quinazolin-5-one]
14 nM	152 to 155 °C	O=c1c2cc(Br)ccc2n2c(N3CCCC3)nnc2n1CC=Cc1ccccc1 [Compound 57, 1-(pyrrolidin-1-yl)-7-bromo-4-(3-phenylallyl)-4H-[1,2,4]triazolo[4,3-a]quinazolin-5-one]
90 nM	187 °C	O=c1c2cc(Br)ccc2n2c(N3CCCC3)nnc2n1C/C=C/c1ccc(Cl)cc1 [Compound 59, 7-Bromo-4-[(E)-3-(4-chloro-phenyl)-allyl]-1-pyrrolidin-1-yl-4H-[1,2,4)triazolo[4,3-a]quinazolin-5-one]
50 nM	171 °C	COc1ccc(C=CCn2c(=O)c3cc(Br)ccc3n3c(N4CCCC4)nnc23)cc1 [Compound 60, 7-Bromo-4-[3-(4-methoxy-phenyl)-allyl]-1-pyrrolidin-1-yl-4H-[1,2,4]triazolo[4,3-a]quinazolin-5-one]
11 nM	102 °C	O=c1c2cc(Br)ccc2n2c(N3CCCC3)nnc2n1CC=Cc1cccnc1 [Compound 61, 7-Bromo-4-(3-pyridin-3-yl-allyl)-1-pyrrolidin-1-yl-4H-[1,2,4]triazolo[4,3-a]quinazolin-5-one]
53 nM	167 °C	O=c1c2cc(Br)ccc2n2c(N3CCCC3)nnc2n1C/C=C/c1ccncc1 [Compound 62, 7-Bromo-4-((E)-3-pyridin-4-yl-allyl)-1-pyrrolidin-1-yl-4H-[1,2,4]triazolo[4,3-a]quinazolin-5-one]
78 nM	178 °C	COc1ccc(Cn2c(=O)c3cc(Br)ccc3n3c(N4CCCCC4)nnc23)cc1OC [Compound 75, 7-Bromo-4-(3,4-dimethoxy-benzyl)-1-piperidin-1-yl-4H-[1,2,4]triazolo[4,3-a]quinazolin-5-one]
38 nM	223 °C	Cc1ccc(Cn2c(=O)c3cc(Br)ccc3n3c(N(C)C)nnc23)cc1 [Compound 78, 7-Bromo-1-dimethylamino-4-(4-methyl-benzyl)-4H-[1,2,4]triazolo[4,3-a]quinazolin-5-one]
90 nM	–	O=c1c2cc(Br)ccc2n2c(N3CCCC3)nnc2n1Cc1ccccc1 [Compound 164, 4-benzyl-7-bromo-1-(pyrrolidin-1-yl)-4H-[1,2,4]triazolo[4,3-a]-quinazolin-5-one]
48 nM	–	Nc1ccc(Cn2c(=O)c3cc(Br)ccc3n3c(N4CCCC4)nnc23)cc1 [Compound 218, 4-(4-Amino-benzyl)-7-bromo-1-pyrrolidin-1-yl-4H-[1,2,4]triazolo[4,3-a]quinazolin-5-one]
12 nM	–	Nc1ccc2c(c1)c(=O)n(C/C=C/c1ccccc1)c1nnc(N3CCCC3)n21 [Compound 223, 7-Amino-4-((E)-3-phenyl-allyl)-1-pyrrolidin-1-yl-4H-[1,2,4]triazolo[4,3-a]quinazolin-5-one]
2690 nM	–	CC(C)Nc1ccc2c(c1)c(=O)n(Cc1ccccc1)c1nnc(N3CCCC3)n21 [Compound 234, 4-Benzyl-7-isopropylamino-1-pyrrolidin-1-yl-4H-[1,2,4]triazolo[4,3-a]quinazolin-5-one]
5 nM	–	COC(=O)Cc1ccc(Cn2c(=O)c3cc(Br)ccc3n3c(N4CCCC4)nnc23)cc1 [Compound 239, [4-(7-Bromo-5-oxo-1-pyrrolidin-1-yl-5H-[1,2,4]triazolo[4,3-a]quinazolin-4-ylmethyl)-phenyl]-acetic acid methyl ester]
13 nM	–	CNC(=O)Cc1ccc(Cn2c(=O)c3cc(Br)ccc3n3c(N4CCCC4)nnc23)cc1 [Compound 240, 2-[4-(7-Bromo-5-oxo-1-pyrrolidin-1-yl-5H-[1,2,4]triazolo[4,3-a]quinazolin-4-ylmethyl)-phenyl]-N-methyl-acetamide]
